According to publication PMC9508125, “The evolutionary advantage of an aromatic clamp in plant family 3 glycoside exo-hydrolases” (Nature Communications, 2022):
Numbering of substitutions follows the chain as printed.

Assays:
Assay in all cases: Relative rates of hydrolysis of poly-, oligosaccharides and aryl-glycosides
Format in all cases: biochemical
HvExoI W286F mutant = molecular target: T1, HvExoI W286F mutant (Hordeum vulgare, UniProt Q9XEI3, W311F); details: substance is the substrate, nd = activity not detected
T1 sequence (Q9XEI3 26-630 W311F): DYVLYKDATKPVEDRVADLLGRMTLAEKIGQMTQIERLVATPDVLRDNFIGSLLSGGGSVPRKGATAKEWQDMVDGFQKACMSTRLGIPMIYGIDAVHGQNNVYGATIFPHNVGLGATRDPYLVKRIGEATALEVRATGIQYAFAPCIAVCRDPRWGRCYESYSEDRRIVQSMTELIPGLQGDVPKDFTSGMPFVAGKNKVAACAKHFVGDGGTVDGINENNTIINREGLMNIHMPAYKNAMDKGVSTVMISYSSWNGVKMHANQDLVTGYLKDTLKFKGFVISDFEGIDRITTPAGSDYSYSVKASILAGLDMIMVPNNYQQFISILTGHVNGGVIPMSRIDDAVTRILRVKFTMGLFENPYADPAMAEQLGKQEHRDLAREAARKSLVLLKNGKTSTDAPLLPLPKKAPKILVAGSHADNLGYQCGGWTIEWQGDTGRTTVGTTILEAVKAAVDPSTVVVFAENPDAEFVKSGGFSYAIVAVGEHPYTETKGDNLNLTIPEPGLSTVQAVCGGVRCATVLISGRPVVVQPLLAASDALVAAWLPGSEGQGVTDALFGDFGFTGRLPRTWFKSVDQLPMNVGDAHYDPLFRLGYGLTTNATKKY
Experimental: (§1) Dependency of activities of WT and mutant HvExoI on pH (McIlvaine buffers in the pH range of 3.5–8.5 at 30 °C) and temperature (100 mM sodium acetate buffer, pH 5.25, temperature range 0–80 °C, 15 min incubations) were determined using 0.2% (w/v) 4NP-Glc[21],[59]. Relative rates of hydrolysis of β-linked poly-, oligosaccharides, and aryl-glucosides were determined using near-homogenous HvExoI at 50 pmoles. […] Kinetic parameters were calculated from the analyses of Michaelis-Menten plots with Grafit 7.0.3[62] and processed by a proportional weighted fit, using nonlinear regression. The relative rates of hydrolysis, kinetic, and inhibition data were rounded to one or two decimal points (Supplementary Tables 2–4).

[1] = molecular target: T2, HvExoI W286F/W434A mutant (Hordeum vulgare, UniProt Q9XEI3, W311F/W459A); details: substance is the substrate, nd = activity not detected
T2 sequence (Q9XEI3 26-630 W311F/W459A): T1 sequence (Q9XEI3 26-630 W311F) with W434A
Experimental: as §1

HvExoI W286Y mutant = molecular target: T3, HvExoI W286Y mutant (Hordeum vulgare, UniProt Q9XEI3, W311Y); details: substance is the substrate, nd = activity not detected
T3 sequence (Q9XEI3 26-630 W311Y): T1 sequence (Q9XEI3 26-630 W311F) with F286Y
Experimental: as §1

HvExoI W434Y mutant = molecular target: T4, HvExoI W434Y mutant (Hordeum vulgare, UniProt Q9XEI3, W459Y); details: substance is the substrate, nd = activity not detected
T4 sequence (Q9XEI3 26-630 W459Y): T1 sequence (Q9XEI3 26-630 W311F) with F286W, W434Y
Experimental: as §1

WT HvExoI = WT HvExoI (Hordeum vulgare, UniProt Q9XEI3); details: substance is the substrate, HvExoI at 50 pmoles, nd = activity not detected
Experimental: as §1

WT HvExoI, sequence (Q9XEI3 entry or part of it): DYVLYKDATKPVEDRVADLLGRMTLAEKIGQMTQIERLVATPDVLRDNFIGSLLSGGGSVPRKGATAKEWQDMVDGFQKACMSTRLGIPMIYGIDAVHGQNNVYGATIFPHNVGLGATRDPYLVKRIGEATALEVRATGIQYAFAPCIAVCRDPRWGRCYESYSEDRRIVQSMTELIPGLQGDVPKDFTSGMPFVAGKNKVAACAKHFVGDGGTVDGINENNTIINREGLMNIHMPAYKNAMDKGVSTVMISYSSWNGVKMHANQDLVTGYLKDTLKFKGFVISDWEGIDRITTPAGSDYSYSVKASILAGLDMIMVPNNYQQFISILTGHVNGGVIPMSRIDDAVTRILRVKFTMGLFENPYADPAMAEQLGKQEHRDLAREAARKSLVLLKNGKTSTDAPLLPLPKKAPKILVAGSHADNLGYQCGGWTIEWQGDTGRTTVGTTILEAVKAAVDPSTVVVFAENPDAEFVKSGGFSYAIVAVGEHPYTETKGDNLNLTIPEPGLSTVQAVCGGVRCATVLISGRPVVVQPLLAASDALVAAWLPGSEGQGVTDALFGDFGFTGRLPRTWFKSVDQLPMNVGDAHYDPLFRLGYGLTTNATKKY

Row | Compound | Activity (relative rate of hydrolysis) (HvExoI W286F mutant) [μmole/min per mg protein] | Activity (relative rate of hydrolysis) [1] [μmole/min per mg protein] | Activity (relative rate of hydrolysis) (HvExoI W286Y mutant) [μmole/min per mg protein] | Activity (relative rate of hydrolysis) (HvExoI W434Y mutant) [μmole/min per mg protein] | Activity (relative rate of hydrolysis) (WT HvExoI) [μmole/min per mg protein]
1 | Gentiobiose | 0.4 ± 0.03 | 0.002 ± 0.0002 | 7.6 ± 0.8 | 0.1 ± 0.01 | 4.7 ± 0.4
2 | OC[C@H]1O[C@@H](O[C@@H]2[C@@H](O)[C@H](O[C@@H]3[C@@H](O)[C@H](O[C@H]4[C@H](O)[C@@H](CO)OC(O)[C@@H]4O)O[C@H](CO)[C@H]3O)O[C@H](CO)[C@H]2O)[C@H](O)[C@@H](O)[C@@H]1O (some centres unmarked) [Laminaritetraose] | 1.1 ± 0.1 | 0.2 ± 0.01 | 13.8 ± 0.1 | 1.3 ± 0.1 | 12.3 ± 0.5
3 | OC[C@H]1O[C@@H](O[C@@H]2[C@@H](O)[C@H](O[C@@H]3[C@@H](O)[C@H](O[C@@H]4[C@@H](O)[C@H](O[C@@H]5[C@@H](O)[C@H](O)O[C@H](CO)[C@H]5O)O[C@H](CO)[C@H]4O)O[C@H](CO)[C@H]3O)O[C@H](CO)[C@H]2O)[C@H](O)[C@@H](O)[C@@H]1O [Laminaripentaose] | 1.0 ± 0.01 | 0.2 ± 0.02 | 14.8 ± 0.4 | 1.5 ± 0.1 | 11.7 ± 0.5
4 | OC[C@H]1O[C@@H](O[C@H]2[C@H](O)[C@@H](O)[C@H](O[C@H]3[C@H](O)[C@@H](O)[C@H](O[C@H]4[C@H](O)[C@@H](O)[C@H](O[C@H]5[C@H](O)[C@@H](O)C(O)O[C@@H]5CO)O[C@@H]4CO)O[C@@H]3CO)O[C@@H]2CO)[C@H](O)[C@@H](O)[C@@H]1O (some centres unmarked) [Cellopentaose] | 0.1 ± 0.01 | 0.01 ± 0.0003 | 5.8 ± 0.2 | 0.1 ± 0.002 | 8.4 ± 0.4
5 | OC[C@H]1O[C@@H](O[C@H]2[C@H](O)[C@@H](O)[C@H](O[C@H]3[C@H](O)[C@@H](O)C(O)O[C@@H]3CO)O[C@@H]2CO)[C@H](O)[C@@H](O)[C@@H]1O (some centres unmarked) [Cellotriose] | 0.1 ± 0.01 | 0.01 ± 0.001 | 5.6 ± 0.1 | 0.1 ± 0.02 | 8.8 ± 0.4
6 | OC[C@H]1O[C@@H](O[C@@H]2[C@@H](O)[C@H](O[C@@H]3[C@@H](O)[C@H](O[C@@H]4[C@@H](O)[C@H](O[C@@H]5[C@@H](O)[C@H](O[C@@H]6[C@@H](O)[C@H](O[C@@H]7[C@@H](O)[C@H](O)O[C@H](CO)[C@H]7O)O[C@H](CO)[C@H]6O)O[C@H](CO)[C@H]5O)O[C@H](CO)[C@H]4O)O[C@H](CO)[C@H]3O)O[C@H](CO)[C@H]2O)[C@H](O)[C@@H](O)[C@@H]1O [Laminariheptaose] | 1.2 ± 0.1 | 0.1 ± 0.004 | 14.5 ± 2.0 | 1.3 ± 0.1 | 11.0 ± 0.8
7 | OC[C@H]1O[C@@H](O[C@@H]2[C@@H](O)[C@H](O[C@H]3[C@H](O)[C@@H](CO)OC(O)[C@@H]3O)O[C@H](CO)[C@H]2O)[C@H](O)[C@@H](O)[C@@H]1O (some centres unmarked) [Laminaritriose] | 1.3 ± 0.01 | 0.1 ± 0.002 | 14.1 ± 0.4 | 1.4 ± 0.2 | 12.4 ± 0.3
8 | OC[C@H]1O[C@@H](O[C@H]2[C@H](O)[C@@H](O)[C@H](O[C@H]3[C@H](O)[C@@H](O)[C@H](O[C@H]4[C@H](O)[C@@H](O)[C@H](O[C@H]5[C@H](O)[C@@H](O)[C@H](O[C@H]6[C@H](O)[C@@H](O)C(O)O[C@@H]6CO)O[C@@H]5CO)O[C@@H]4CO)O[C@@H]3CO)O[C@@H]2CO)[C@H](O)[C@@H](O)[C@@H]1O (some centres unmarked) [Cellohexaose] | 0.1 ± 0.01 | 0.01 ± 0.0002 | 7.0 ± 0.1 | 0.1 ± 0.01 | 9.1 ± 0.2
9 | OC[C@H]1O[C@@H](O[C@H]2[C@H](O)[C@@H](CO)OC(O)[C@@H]2O)[C@H](O)[C@@H](O)[C@@H]1O (some centres unmarked) [Laminaribiose] | 0.6 ± 0.04 | 0.1 ± 0.001 | 13.9 ± 0.1 | 1.1 ± 0.1 | –
